# Reference: patent publication USRE38994E1, “Pyropheophorbides conjugates and their use in photodynamic therapy” (Health Research, Inc., priority 1988, dated 2006)
# Legend:
# SMT-F tumor = assay: In vivo tumor photosensitizing activity (photodynamic tumor treatment); set-up: species or system DBA/2 mice; conditions: for Tumor Response Day 1 (Number of non-palpable tumors/Number treated tumors) / Tumor Response Day 30 (Number of non-palpable tumors/Number treated tumors) / Tumor Response Day 7 (Number of non-palpable tumors/Number treated tumors) / Tumor Response Day 90 (Number of non-palpable tumors/Number treated tumors): time interval 24 hours, 135 J/cm^2 laser at 75 mW/cm^2
# Method: When 2-[1-(O-hexyl)ethyl]devinyl pyropheophorbide-a - structure (5) in Scheme 1: S—RO—where R═(CH2)5CH3 and m═H, (formula IIa) synthesized as indicated (5.0 mg) is dissolved in Tween 80 (0.1 ml) and mixed with 10 ml Hanks Balanced Salt Solution (HBSS), a solution of approximately 0.5 mg/ml in […] is produced after filtration through a 0.22 AM Millipore filter. […] […] Alternately, a Xenon arc lamp filtered to emit a broader band width near 670 nm and approximately 283 Joules/cm^2 can be used.
# This progresses to frank tumor necrosis over the next few days. […] At 30 days post treatment, six of the 10 tumors remain non-palpable, and one remains tumor-free to 90 days post treatment.
# [1] = Normal foot response / skin clearance after light exposure; assay type: in vivo, albino Swiss mice (HaICR); conditions: for Normal Foot Response Maximum Reaction (score): same light conditions as tumor treatment, score 0.3 - slight edema, 0 - no reaction
# Method: Six albino Swiss mice (HaICR) are injected intravenously with a dose of 0.1 mg/kg body weight of the compound of formula IIa prepared as in Example 1. After approximately 24 h, the hind foot of the animal is exposed to the same dose of either laser light at 660-670 nm (135 Joules/cm^2) or the Xenon arc lamp (283 Joules/cm^2) as above. The reaction of the foot is scored for damage over the next few days to determine the maximum effect, which in this case is a value 0.3 equivalent to slight edema. If the internal between the injection and light treatment is extended to approximately 48 h, the foot reaction is zero (no damage incurred), indicating either clearance or metabolism of the sensitizer.
# tumor = assay: in vivo tumoricidal activity assay; conditions: injected at a dose of 5 mg/kg
# [2] = injected dose 0.1 mg/kg, wavelength 660
# [3] = injected dose 0.3 mg/kg, wavelength 660
# [4] = injected dose 0.1 mg/kg, wavelength 659
# [5] = injected dose 0.3 mg/kg, wavelength 659
# [6] = injected dose 0.3 mg/kg, wavelength 665
# [7] = injected dose 0.3 mg/kg, wavelength 670
# [8] = injected dose 0.3 mg/kg, wavelength 680
# [9] = ten mice, 0.3 mg/kg intravenously, approx. 24 h later laser light at 660-670 nm, 135 Joules/cm^2
compound,measurement,setting,value
CCCCCCOC(C)c1c(C)c2cc3nc(c4c5[nH]c(cc6nc(cc1[nH]2)C(C)=C6CC)c(C)c5C(=O)C4)[C@@H](CCC(=O)OC)[C@@H]3C (stereo partly shown) [Methyl-2-{1(O-hexyl)ethyl}-devinyl pyropheophorbide],Tumor Response Day 1 (Number of non-palpable tumors/Number treated tumors),SMT-F tumor; [2],5/5
same,Tumor Response Day 30 (Number of non-palpable tumors/Number treated tumors),SMT-F tumor; [2],0/5
same,Tumor Response Day 1 (Number of non-palpable tumors/Number treated tumors),SMT-F tumor; [3],6/6
same,Tumor Response Day 7 (Number of non-palpable tumors/Number treated tumors),SMT-F tumor; [3],6/6
same,Tumor Response Day 30 (Number of non-palpable tumors/Number treated tumors),SMT-F tumor; [3],3/6
same,Tumor Response Day 90 (Number of non-palpable tumors/Number treated tumors),SMT-F tumor; [3],3/6
"CCCCCCOC(C)c1c(C)c2cc3nc(c4c5[nH]c(cc6nc(cc1[nH]2)C(C)=C6CC)c(C)c5C(=O)C4)[C@@H](CCC(=O)O)[C@@H]3C (stereo partly shown) [Formula II R5 = —O—(CH2)5CH3 R7 = —CO2H, 2-{1(O-hexyl)ethyl}devinyl pyropheophorbide-a]",Tumor Response Day 1 (Number of non-palpable tumors/Number treated tumors),"SMT-F tumor; injected dose 0.05 mg/kg, wavelength 659",0/40
same,Tumor Response Day 1 (Number of non-palpable tumors/Number treated tumors),SMT-F tumor; [4],6/6
same,Tumor Response Day 7 (Number of non-palpable tumors/Number treated tumors),SMT-F tumor; [4],6/6
same,Tumor Response Day 30 (Number of non-palpable tumors/Number treated tumors),SMT-F tumor; [4],1/6
same,Tumor Response Day 90 (Number of non-palpable tumors/Number treated tumors),SMT-F tumor; [4],1/6
same,Tumor Response Day 1 (Number of non-palpable tumors/Number treated tumors),"SMT-F tumor; injected dose 0.3 mg/kg, wavelength 655",0/10
same,Tumor Response Day 1 (Number of non-palpable tumors/Number treated tumors),SMT-F tumor; [5],5/5
same,Tumor Response Day 7 (Number of non-palpable tumors/Number treated tumors),SMT-F tumor; [5],4/5
same,Tumor Response Day 30 (Number of non-palpable tumors/Number treated tumors),SMT-F tumor; [5],0/5
same,Tumor Response Day 1 (Number of non-palpable tumors/Number treated tumors),SMT-F tumor; [6],10/10
same,Tumor Response Day 7 (Number of non-palpable tumors/Number treated tumors),SMT-F tumor; [6],10/10
same,Tumor Response Day 30 (Number of non-palpable tumors/Number treated tumors),SMT-F tumor; [6],2/10
same,Tumor Response Day 90 (Number of non-palpable tumors/Number treated tumors),SMT-F tumor; [6],0/10
same,Tumor Response Day 1 (Number of non-palpable tumors/Number treated tumors),SMT-F tumor; [7],10/10
same,Tumor Response Day 7 (Number of non-palpable tumors/Number treated tumors),SMT-F tumor; [7],10/10
same,Tumor Response Day 30 (Number of non-palpable tumors/Number treated tumors),SMT-F tumor; [7],6/10
same,Tumor Response Day 90 (Number of non-palpable tumors/Number treated tumors),SMT-F tumor; [7],1/10
same,Tumor Response Day 1 (Number of non-palpable tumors/Number treated tumors),SMT-F tumor; [8],1/10
same,Tumor Response Day 7 (Number of non-palpable tumors/Number treated tumors),SMT-F tumor; [8],0/10
same,Tumor state at 7 days post treatment,SMT-F tumor; [9],all tumors remain non-palpable and necrotic
same,Tumor state the day after light treatment,SMT-F tumor; [9],all the tumors are seen to be flat (non-palpable)
same,Tumor-free to 90 days post treatment (number of the 10),SMT-F tumor; [9],one
same,Tumors remaining non-palpable at 30 days post treatment,SMT-F tumor; [9],six of the 10
same,"Foot reaction, maximum effect (damage score)","[1]; 0.1 mg/kg intravenously, hind foot exposed after approx. 24 h, 660-670 nm laser 135 Joules/cm^2 or Xenon arc lamp 283 Joules/cm^2, 0.3 equivalent to slight edema",0.3
same,Foot reaction (damage score),"[1]; 0.1 mg/kg intravenously, interval between injection and light treatment approx. 48 h, zero = no damage incurred",zero
same,Normal Foot Response Maximum Reaction (score),"[1]; table row of injected dose 0.1 mg/kg, time interval 24 hours",0.3
same,Normal Foot Response Maximum Reaction (score),"[1]; table row of injected dose 0.3 mg/kg, time interval 48-72 hours",0
C=Cc1c(C)c2cc3nc(c4c5[nH]c(cc6nc(cc1[nH]2)C(C)=C6CC)c(C)c5C(=O)[C@@H]4C(=O)OC)[C@@H](CCC(=O)OC)[C@@H]3C [Methyl pheophorbide-a],in vivo tumoricidal activity,tumor,inactive
